As a reminder, the EC50 is the concentration at which the effect is half-maximal.

Experimental findings from paper PMC9369311, “Examination of Intracellular GPCR-Mediated Signaling with High Temporal Resolution” (International Journal of Molecular Sciences, 2022) are described below.

“And” between values parts separate entries of the source, which are not always exact repeats. Identical values can stand only once.

In this test the target is T1, DmOctα1B receptor (Drosophila melanogaster, UniProt Q7JQF1).
T1 construct: expressed in transfected cells
T1 sequence (Q7JQF1 1-645): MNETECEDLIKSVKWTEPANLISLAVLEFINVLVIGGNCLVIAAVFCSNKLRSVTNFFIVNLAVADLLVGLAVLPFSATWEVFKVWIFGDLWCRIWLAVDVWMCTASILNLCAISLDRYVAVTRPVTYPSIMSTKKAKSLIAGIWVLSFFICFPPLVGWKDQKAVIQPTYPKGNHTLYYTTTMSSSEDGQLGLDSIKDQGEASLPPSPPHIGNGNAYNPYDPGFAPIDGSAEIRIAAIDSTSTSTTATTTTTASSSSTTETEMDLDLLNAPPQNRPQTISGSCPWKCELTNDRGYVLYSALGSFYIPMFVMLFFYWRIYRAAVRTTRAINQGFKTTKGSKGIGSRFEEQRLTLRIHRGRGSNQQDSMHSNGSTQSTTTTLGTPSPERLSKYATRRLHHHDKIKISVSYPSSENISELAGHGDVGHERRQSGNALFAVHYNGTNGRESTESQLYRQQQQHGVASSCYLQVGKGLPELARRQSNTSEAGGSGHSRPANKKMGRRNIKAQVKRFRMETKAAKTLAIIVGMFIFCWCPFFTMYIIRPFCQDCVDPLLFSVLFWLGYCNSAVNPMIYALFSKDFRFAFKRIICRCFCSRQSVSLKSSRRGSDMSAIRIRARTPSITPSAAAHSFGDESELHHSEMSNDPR
The experiment in a line: Stopped-flow Ca2+ fluorescence measurements, DmOctα1B-expressing HEK293 cells. Format: cell-based. As to conditions: for response time: Fluo-4 or GCaMP3.0. Here is the method: As described for the fluorimetric measurements performed in 96 well plates, the stimulation of the DmOctα1B receptors with octopamine results in an efflux of Ca^2+ from the intracellular stores, which was now analyzed by stopped-flow experiments with high temporal resolution. The cells loaded with Fluo-4 or constitutively expressing GCaMP3.0 were diluted in extracellular solution (ES) to a density of 1 × 10^6 cells/mL prior to application to the stopped-flow system. The cells were mixed with increasing ligand concentrations and the fluorescence signals were monitored for 40 s (Figure 3). The increasing ligand concentrations lead to a rise in the fluorescence intensities. The initial Ca^2+ responses were detected at 1 nM octopamine and saturated at ligand concentrations ≥ 30 nM. After reaching a maximum, the fluorescence intensities decreased (Figure 3A1). This effect was more pronounced for concentrations ≤ 30 nM. In the cells expressing GCaMP3.0 (DmOctα1B-GCaMP3.0), additional increases in Ca^2+ were resolved (Figure 3B1), probably monitoring the Ca^2+ oscillations that are known to be induced upon DmOctα1B activation. To determine the ligand affinities for the receptor, the maximal fluorescence intensities were plotted against the octopamine concentrations. […] The EC50 values were obtained from nonlinear fitting of the data, using GraphPad Prism v5.04. […] Besides the determination of the EC50 values, information about reaction velocities could be gained when analyzing the first 4 s of the measurements. The increasing octopamine concentrations correlated with faster signal detection (Figure 3A2,B2). […] The reaction velocities in a concentration range from 3 nM to 300 nM octopamine were almost identical for the Fluo-4-loaded and the GCaMP3.0-expressing cells.
For the stopped-flow measurements, the SFM-400 system (BioLogic, Münster, Germany) was used. The main component of the stopped-flow setup is the SFM-400 module with four 10 mL syringes, which can be filled by external valves. The syringes are driven by step motors. The reactants can be mixed in three individual mixing chambers (M1–M3). The volume between M1 and M2 is 21 µL, and 31 µL between M2 and M3. The observation chamber is a quartz cuvette (FC-15) with a reaction volume of 31 µL, installed behind M3. To avoid fluctuations of the reaction mixture in the cuvette, which might lead to noisy and inconsistent signals, a hard stop valve located behind the cuvette can be closed after injection of the reactants. The stopped-flow module is controlled via a MPS-60 control unit (BioLogic). Data acquisition and operation of the system were performed with the Bio-Kine 32 v4.74 software (BioLogic).
The reactions in the cuvette were analyzed via the changes in the fluorescence. A 150 W Xe/Hg-lamp (ALX-220; BioLogic) was used as a light source for the excitation. The excitation light was guided via a light guide towards the cuvette. To determine the wavelength of the excitation light, a 482 nm bandpass filter (482/35 nm BrightLine® single-band bandpass filter; Semrock, Rochester, NY, USA) was used. A heat protection filter (3 mm; KG1, Schott; Mainz, Germany) was placed between the Xe/Hg-lamp and the excitation filter. The fluorescence was detected with a photomultiplier (PMS 200, BioLogic) installed rectangularly to the light path of the excitation light. Between the cuvette and the photomultiplier tube a 535 nm bandpass emission filter (XF3007 535AF35; Horiba, Oberursel, Germany) was placed to select for the emission light being detected by the photomultiplier. A voltage of 600 V was applied to the photomultiplier.
The fluorescence measurements were performed either directly with the cells expressing GCaMP3.0 or after loading the cells with Fluo-4-AM. Changes in the intracellular Ca^2+ were induced by stimulating the cells with a concentration series of different ligands. In the stopped-flow module, four different solutions can be mixed. […]

Regarding `NCC(O)c1ccc(O)cc1` (stereo not drawn) [octopamine], the response time by setting is: (low ligand concentrations ≤ 3 nM (1 nM elsewhere in the source)) ~ 2 s and 2 s; (saturating octopamine concentrations (≥30 nM; 300 nM)) ~ 300 ms and ≈ 350 ms. In addition, the “Signal Response Time” value (saturating concentration, DmOctα1B cells loaded with Fluo-4, mean ± SEM) is reported as 0.35 ± 0.04 s; the “Signal Response Time” value (saturating concentration, DmOctα1B-GCaMP3.0 cells, mean ± SEM) was 0.36 ± 0.05 s; the Signal Response Time (saturating ligand concentration, DmOctα1B cell lines, Fluo-4 and GCaMP3.0) is recorded as 0.35 s. The “concentration at which initial Ca2+ responses were detected” value (stopped-flow, DmOctα1B cells) is listed as 1 nM. The “ligand concentration at which Ca2+ responses saturated” value (stopped-flow, DmOctα1B cells) is on record as ≥ 30 nM. The 50% effective concentration (EC50) is 2.25 nM and 2.3 nM (stopped-flow, DmOctα1B cells loaded with Fluo-4, mean ± SEM); 1.7 ± 0.1 nM (stopped-flow, DmOctα1B-GCaMP3.0 cells, mean ± SEM).
